Source: patent US8399482B2, “6-substituted isoquinolines and isoquinolinones” (Sanofi, priority 2008, dated 2013)

Tests used:
[1] = molecular target: T1, human recombinant ROCK II (Homo sapiens, UniProt O75116); experiment: Determination of Rho kinase inhibition (ROCK II, Caliper peptide phosphorylation assay); type: biochemical; conditions: respective form (salt or free base) as obtained in the examples, 60 min at 32° C.
T1 construct: recombinant human ROCK-II residues 11-552; His6 (N); purchased Millipore GmbH, Schwalbach, Germany
Outline: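 Enzyme: active N-terminal His6-tagged recombinant human ROCK-II, residues 11-552. Substrate: a fluorescein-labelled peptide, with ATP. IC50 values were determined.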

recombinant human PKA = molecular target: T2, recombinant human PKA (Homo sapiens, UniProt P17612); experiment: Determination of Protein Kinase A inhibition (selectivity); type: biochemical; conditions: from IC50 values
T2 construct: recombinant human PKA (residues 1-351, N-terminal His-tag); His-tag (N); purchased Invitrogen, Karlsruhe, Germany
Outline: (§1)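 Full-length His-tagged PKG1-beta and His-tagged PKA (residues 1-351) assayed in Tris-HCl pH 7.4 with fluorescein-labelled peptide and ATP (diluted to 3 μM and 120 μM before mixing), 60 min at 32° C. EDTA-stopped; substrate phosphorylation detected by Caliper mobility-shift separation, giving IC50 values.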

[2] = molecular target: T3, recombinant human PKG1-beta (Homo sapiens, UniProt Q13976); experiment: Determination of Protein Kinase G inhibition (selectivity); type: biochemical; conditions: from IC50 values
T3 construct: PKG1-beta (full-length, with N-terminal His-tag); His-tag (N); purchased Millipore GmbH, Schwalbach, Germany
T3 sequence (Q13976 1-686 isoform Q13976-2): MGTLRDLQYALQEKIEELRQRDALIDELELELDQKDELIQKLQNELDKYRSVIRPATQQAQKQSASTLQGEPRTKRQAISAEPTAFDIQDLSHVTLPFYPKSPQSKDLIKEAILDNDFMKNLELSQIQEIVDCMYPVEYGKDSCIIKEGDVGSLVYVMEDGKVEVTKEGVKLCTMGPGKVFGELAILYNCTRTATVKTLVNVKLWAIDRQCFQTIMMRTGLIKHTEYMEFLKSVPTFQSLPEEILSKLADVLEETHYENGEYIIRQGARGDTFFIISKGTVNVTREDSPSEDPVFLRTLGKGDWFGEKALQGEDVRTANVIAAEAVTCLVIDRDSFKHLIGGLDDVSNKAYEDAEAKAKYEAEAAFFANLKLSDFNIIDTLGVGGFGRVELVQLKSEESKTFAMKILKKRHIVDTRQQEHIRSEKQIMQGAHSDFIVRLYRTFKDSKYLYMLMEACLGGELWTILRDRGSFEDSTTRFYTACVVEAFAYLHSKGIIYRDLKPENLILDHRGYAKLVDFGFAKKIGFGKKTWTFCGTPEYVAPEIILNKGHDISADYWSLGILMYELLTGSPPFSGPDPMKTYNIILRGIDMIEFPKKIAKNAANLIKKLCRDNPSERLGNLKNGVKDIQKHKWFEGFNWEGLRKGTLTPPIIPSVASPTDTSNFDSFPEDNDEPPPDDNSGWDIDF
Outline: as §1

Protein Kinase G = conditions: Rho kinase inhibitor, background statement; cited from earlier work

T1 sequence (O75116 11-552): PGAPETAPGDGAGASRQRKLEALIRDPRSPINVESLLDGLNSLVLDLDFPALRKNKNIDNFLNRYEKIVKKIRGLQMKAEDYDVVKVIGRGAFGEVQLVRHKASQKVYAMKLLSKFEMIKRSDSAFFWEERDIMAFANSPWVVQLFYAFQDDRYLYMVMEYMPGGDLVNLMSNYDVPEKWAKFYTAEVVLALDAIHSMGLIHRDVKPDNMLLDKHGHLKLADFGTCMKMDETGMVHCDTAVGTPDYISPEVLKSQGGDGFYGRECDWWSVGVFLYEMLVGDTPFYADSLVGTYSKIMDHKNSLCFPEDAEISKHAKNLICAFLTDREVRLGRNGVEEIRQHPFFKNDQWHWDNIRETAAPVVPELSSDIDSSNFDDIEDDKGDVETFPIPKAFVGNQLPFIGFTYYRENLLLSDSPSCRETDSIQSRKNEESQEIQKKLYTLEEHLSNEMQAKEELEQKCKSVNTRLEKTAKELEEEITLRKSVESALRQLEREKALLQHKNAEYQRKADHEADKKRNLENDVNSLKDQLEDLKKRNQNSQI

With `C[C@]1(C(N)C2CC2)CC[C@@H](Oc2cc3cc[nH]c(=O)c3cc2Cl)CC1` (stereo partly drawn) [Example 69, cis-6-[4-(Amino-cyclopropyl-methyl)-4-methyl-cyclohexyloxy]-7-chloro-2H-isoquinolin-1-one] the IC50 [1] was no more than 10 nM, the “Selectivity against PKA” value (recombinant human PKA) was greater than 1000 fold and the “Selectivity against PKG” value [2] was greater than 300 fold.
In the case of `CC[C@]1(C(N)C2CC2)CC[C@@H](Oc2cc3cc[nH]c(=O)c3cc2Cl)CC1` (stereo partly drawn) [Example 70, cis-6-[4-(Amino-cyclopropyl-methyl)-4-ethyl-cyclohexyloxy]-7-chloro-2H-isoquinolin-1-one], the IC50 [1] is reported as no more than 10 nM, the “Selectivity against PKA” value (recombinant human PKA) is reported as greater than 1000 fold and the “Selectivity against PKG” value [2] is reported as greater than 1000 fold.
For `CC(N)[C@]1(C2CC2)CC[C@H](Oc2cc3cc[nH]c(=O)c3cc2Cl)CC1` (stereo partly drawn) [Example 72, cis-6-[4-(1-Amino-ethyl)-4-cyclopropyl-cyclohexyloxy]-7-chloro-2H-isoquinolin-1-one], the IC50 [1] was 10 to 100 nM, the “Selectivity against PKA” value (recombinant human PKA) was greater than 300 fold and the “Selectivity against PKG” value [2] was greater than 100 fold.
For `NC(C1CC1)[C@]1(CCCC(F)(F)F)CC[C@H](Oc2cc3cc[nH]c(=O)c3cc2Cl)CC1` (stereo partly drawn) [Example 73, cis-6-[4-(Amino-cyclopropyl-methyl)-4-(4,4,4-trifluoro-butyl)-cyclohexyloxy]-7-chloro-2H-isoquinolin-1-one], the IC50 [1] was no more than 10 nM, the “Selectivity against PKA” value (recombinant human PKA) was greater than 1000 fold and the “Selectivity against PKG” value [2] was greater than 300 fold.
For `CCC(N)[C@]1(C2CC2)CC[C@H](Oc2cc3cc[nH]c(=O)c3cc2Cl)CC1` (stereo partly drawn) [Example 74, cis-6-[4-(1-Amino-propyl)-4-cyclopropyl-cyclohexyloxy]-7-chloro-2H-isoquinolin-1-one], the IC50 [1] was no more than 10 nM, the “Selectivity against PKA” value (recombinant human PKA) was greater than 1000 fold and the “Selectivity against PKG” value [2] was greater than 1000 fold.
For `NC(C1CC1)[C@]1(C2CC2)CC[C@H](Oc2cc3cc[nH]c(=O)c3cc2Cl)CC1` (stereo partly drawn) [Example 75, cis-6-[4-(Amino-cyclopropyl-methyl)-4-cyclopropyl-cyclohexyloxy]-7-chloro-2H-isoquinolin-1-one], the IC50 [1] was no more than 10 nM, the “Selectivity against PKA” value (recombinant human PKA) was greater than 1000 fold and the “Selectivity against PKG” value [2] was greater than 1000 fold.
In the case of `CCC(N)[C@]1(C2CCSCC2)CC[C@H](Oc2cc3cc[nH]c(=O)c3cc2Cl)CC1` (stereo partly drawn) [Example 76, cis-6-[4-(1-Amino-propyl)-4-(tetrahydro-thiopyran-4-yl)-cyclohexyloxy]-7-chloro-2H-isoquinolin-1-one], the IC50 [1] is reported as no more than 10 nM, the “Selectivity against PKA” value (recombinant human PKA) is reported as greater than 1000 fold and the “Selectivity against PKG” value [2] is reported as greater than 1000 fold.
With `CCC[C@]1(C(C)N)CC[C@@H](Oc2cc3cc[nH]c(=O)c3cc2Cl)CC1` (stereo partly drawn) [Example 77, cis-6-[4-(1-Amino-ethyl)-4-propyl-cyclohexyloxy]-7-chloro-2H-isoquinolin-1-one] the IC50 [1] was no more than 10 nM, the “Selectivity against PKA” value (recombinant human PKA) was greater than 1000 fold and the “Selectivity against PKG” value [2] was greater than 300 fold.
With `CC[C@]1(C(C)N)CC[C@@H](Oc2cc3cc[nH]c(=O)c3cc2F)CC1` (stereo partly drawn) [Example 78, cis-6-[4-(1-Amino-ethyl)-4-ethyl-cyclohexyloxy]-7-fluoro-2H-isoquinolin-1-one] the IC50 [1] was 10 to 100 nM, the “Selectivity against PKA” value (recombinant human PKA) was greater than 300 fold and the “Selectivity against PKG” value [2] was greater than 100 fold.
With `CCC(N)[C@]1(C(C)C)CC[C@H](Oc2cc3c(F)c[nH]c(=O)c3cc2Cl)CC1` (stereo partly drawn) [Example 90, cis-6-[4-(1-Amino-propyl)-4-isopropyl-cyclohexyloxy]-7-chloro-4-fluoro-2H-isoquinolin-1-one] the IC50 [1] was 10 to 100 nM, the “Selectivity against PKA” value (recombinant human PKA) was greater than 300 fold and the “Selectivity against PKG” value [2] was greater than 100 fold.
With `CC[C@]1(C(N)CF)CC[C@@H](Oc2cc3cc[nH]c(=O)c3cc2Cl)CC1` (stereo partly drawn) [Example 95, cis-6-[4-(1-Amino-2-fluoro-ethyl)-4-ethyl-cyclohexyloxy]-7-chloro-2H-isoquinolin-1-one] the IC50 [1] was no more than 10 nM, the “Selectivity against PKA” value (recombinant human PKA) was greater than 1000 fold and the “Selectivity against PKG” value [2] was greater than 300 fold.
With `CC[C@]1(C(N)CF)CC[C@H](Oc2cc3cc[nH]c(=O)c3cc2Cl)CC1` (stereo partly drawn) [Example 96, trans-6-[4-(1-Amino-2-fluoro-ethyl)-4-ethyl-cyclohexyloxy]-7-chloro-2H-isoquinolin-1-one] the IC50 [1] was 10 to 100 nM, the “Selectivity against PKA” value (recombinant human PKA) was greater than 300 fold and the “Selectivity against PKG” value [2] was greater than 100 fold.
With `CCC(N)[C@]1(C2CCS(=O)(=O)CC2)CC[C@H](Oc2cc3cc[nH]c(=O)c3cc2Cl)CC1` (stereo partly drawn) [Example 99, cis-6-[4-(1-amino-propyl)-4-(1,1-dioxo-tetrahydrothiopyran-4-yl)-cyclohexyloxy]-7-chloro-2H-isoquinolin-1-one] the IC50 [1] was no more than 10 nM, the “Selectivity against PKA” value (recombinant human PKA) was greater than 1000 fold and the “Selectivity against PKG” value [2] was greater than 300 fold.
For `C[C@@H](N)[C@H]1CC[C@H](C(=O)Nc2ccncc2)CC1` [Example Y-27632], the “selectivity against Protein Kinase G” value (Protein Kinase G) is given as 20 fold.
